# Several values for one entry are separate records, joined by “and”; a condition that tells them apart may be missing. Equal values may be shown once. Where a SMILES comes first, the peptide text is derived from it. The star is where a group is joined. Cbz = O=C(OCc1ccccc1)*
# Experiments:
# [1] = tested on: recombinant CHO antibody producing cell line (CH0149); assay: Initial assessment of inhibitor concentrations on recombinant CHO cell line growth (viable cell number, culture viability, ViCell); assay type: cell-based, Chinese hamster
# Description: (§1) 96 deep well plates (Nunc) were seeded at 4×10^6 cells/ml at 300 μl per well for analysis of proteasome and ERAD inhibitors. Triplicate wells were prepared for each inhibitor for each of the panel of cell lines. […] 100 μl of the well volume was combined with 900 μl PBS and a cell count performed using the ViCell apparatus. The remaining 200 μl was centrifuged at 1000 rpm for 5 minutes and the supernatant and pellet stored at −20° C. prior to further analysis.
# (§2) Initial assessment was performed across two experiments using one model recombinant CHO antibody producing cell line (CH0149) to determine the appropriate concentrations of each inhibitor to use for the assessment of the full panel (FIGS. 1A-1C and 2A-2F).
# GS-KO CHO host cell line = assay: Host selection/adaptation in presence of inhibitors, then transient transfection with cB72.3 (Example 8); assay type: cell-based, Chinese hamster
# Description: In order to ascertain if adapted/selected host cells with the ability to produce enhanced recombinant protein yields and quality could be generated by culturing the Lonza GS-KO CHO host cell line in the presence of the protein degradation inhibitors, the GS-KO host cell line was cultured in the presence of various protein degradation inhibitors for a series of passages. The host cell line was therefore cultured in 20 ml CD-CHO+6 mM glutamine+the appropriate inhibitors as outlined below in 125 ml Erlenmeyer shake flasks at 37° C. under a 5% CO2 in air environment with shaking at 140 rpm. At each passage the new culture was seeded at 0.2×10^6 viable cells/ml. Cells were passaged when the cell number exceeded 1×10^6 viable cells per mL.
# However, cells in the presence of this concentration of MG132 were subjected to 4 passages at this concentration and then a further 2 in the absence of the drug. At this time there was sufficient cells for the transfection following passage of the cells without the drug (2nd experiment of the two) to be undertaken.
# Transient transfection of the emerging cell host pools described above was then performed via electroporation with 20 μg of the model cB72.3 plasmid and 1×10^7 viable cells and the cells placed in 20 ml of fresh CD-CHO media plus 6 mM glutamine in 125 ml Erlenmeyer shake flasks and cultured at 37° C. under a 5% CO2 in air environment with shaking at 140 rpm. This was undertaken for the host cell pools that had been in the presence of the inhibitors continually and those that had been passaged for an additional two passages in the absence of the inhibitors. Samples were taken from these batch cultures to monitor growth and antibody titre at 48, 96 and 168 hours post-transfection.
# [2] = tested on: GS KO Lonza host cells expressing cB72.3 monoclonal antibody; assay: Cell line construction with MSX plus proteasome or ERAD inhibitors (Example 6), cB72.3 titre by Octet and western blot; assay type: cell-based, Chinese hamster; conditions: for cell specific productivities compared to MSX control pools: MG-132 particularly 31.25 nM, various concentrations of epoxomicin and eeyarestatin; for monoclonal antibody titre higher than control pool: 31.25 nM MG-132 and 37.5 μM MSX, 168 h of batch culture
# Description: Multiple electroporations with 20 μg of linearized GS cB72.3 monoclonal antibody containing construct with 1×10^7 viable GS KO Lonza host cells were performed and pooled. This pool was then set up into 10 ml cultures, each containing approximately 0.25×10^6 cells and 10 μg DNA, and immediately placed in a static incubator at 37° C. with 5% CO2. Cell media consisted of commercially available CD-CHO media without glutamine and the addition of MSX and inhibitors as outlined below. 24 hours post transfection, MSX was added to the media to make the culture volume up to 15 ml and provide a final MSX concentration of 37.5 μM. The different inhibitors were then added to the pools a further 24 hours after the addition of MSX. A range of concentrations were added for each inhibitor to give the final concentrations in the flasks as described in FIG. 13. Only one inhibitor treatment was performed per flask (no combined treatments) and all were performed in combination with 37.5 μM MSX as outlined in FIG. 13.
# The cell pools were then left in the static incubator at 37° C. and 5% CO2 until the viable cell concentration in the flask reached ˜0.2×10^6 cells/ml. When this viable cell number was achieved, cell pools were moved into 125 mL Erlenmeyer shake flasks and cultured in a 20 mL volume of CD-CHO including MSX and the appropriate concentration of inhibitor at 37° C. under a 5% CO2 in air environment with shaking at 140 rpm. 24 out of 33 transfections/pools were eventually moved across to shake flasks as they exceeded the required viable cell concentration described above.
# Cell pools were then cultured in the presence of the appropriate inhibitor (and inhibitor concentration and 37.5 μM MSX) in 20 mL of CD-CHO for several passages (each being seeded at 0.2×10^6 viable cells/ml) before batch cultures were set up for each to assess the growth of the pool and to sample for product concentration over the duration of culture. For this purpose 20 ml batch cultures (seeded at 0.2×10^6 viable cells/ml) were sampled at 48, 96 and 168 hours for growth and titre information. The cell pools were also then passaged for an additional two passages in the absence of the inhibitors (but containing MSX) to determine if any changes in growth or productivity were observed, i.e. were the improved culture titres only maintained if the inhibitor was continually present.
# [3] = tested on: CHOK1 GS-KO cells producing antibody A; assay: Cell line construction with MSX plus proteasome inhibitor selection (Example 5), growth and antibody concentration by ELISA / Protein A HPLC; assay type: cell-based, Chinese hamster
# Description: The electroporation was performed in the GSKO suspension cell line. A count was performed of the culture in mid exponential phase and the remaining culture centrifuged at 1000 rpm and the supernatant removed. 1×10^7 cells were required per electroporation cuvette in a volume of 700 μl. Therefore, the pellet was resuspended to achieve the concentration of cells for the number of electroporations required. Electroporations were performed with 20 μg linearized plasmid at 300 V, a capacitance of 900 μF and using cuvettes with a 4 mm gap. Each cuvette was added to 20 ml of fresh media with 2 ml of that volume used to rinse out the cuvette. For the cell line construction experiment, then all electroporations were pooled together to give a final volume of 300 ml. This was thoroughly mixed and then distributed in 10 ml volumes between 30×T75 tissue culture flasks. The flasks were then incubated statically at 36.5° C. with 5% CO2. 24 hours after the transfection, the glutamine synthetase inhibitor (MSX) was added to provide selection of the cells successfully taking up the plasmid and expressing the selection marker GS. 5 ml volumes of the MSX stocks with CD-CHO media were added to give either a final culture concentration of either 25, 37.5 or 50 μM MSX. The addition of the proteasome inhibitors was then performed at the appropriate time-point following MSX selection as determined by the design of experiments layout detailed in Table 3. Filter sterilized DMSO was added as a control where no drug was required in the combinations. Cultures were then incubated statically at 36.5° C. and 5% CO2 for approximately two weeks following addition of MSX. […] Once a viable cell concentration of at least 0.2×10^6 cells/ml was achieved, the cultures were moved into 20 ml shake flask cultures at 36.5° C. and 5% CO2 with shaking at 140 rpm. From this point onwards routine sub-culture was performed every 3-4 days.
# AffiniPure F(ab′)2 fragment goat anti-human IgG Fc fragment specific (minimal cross-reaction to bovine, horse, mouse serum proteins) (Jackson ImmunoResearch Laboratories Inc) was diluted in coating buffer (15 mM Na2CO3 and 35 mM NaHCO3, pH 9.7) to give a concentration of […]. 100 μl of the stock was then used to coat each well of 96 well plate (Nunc). Plates were covered with foil and stored at 4° C. overnight. […] Plates were again washed and ready-made TMB substrate (Cell signalling technology #7004) was added (100 μl/well). […] The optical density of each well was then measured at 450 nm. The concentration of the supernatant samples were then determined from the standard curve of the known concentrations of IgG. […]
# ER translocation = conditions: in vivo; cited from earlier work
# [4] = Initial assessment of inhibitor concentrations on recombinant CHO cell line growth (viable cell number, culture viability, ViCell); assay type: cell-based, Chinese hamster; conditions: Chinese hamster
# Description: as §1, §2
# apoptosis = conditions: cited from earlier work
# [5] = host initially cultured with Eeyarestatin I or 6.25 nM Epoxomicin, then 2 passages without inhibitor
# [6] = immediately after treatment with inhibitors
# [7] = two passages in the absence of inhibitors
structure (smiles),measurement,setting,value
CC[C@H](C)[C@H](NC(=O)[C@H]([C@@H](C)CC)N(C)C(C)=O)C(=O)N[C@H](C(=O)N[C@@H](CC(C)C)C(=O)[C@@]1(C)CO1)[C@@H](C)O [epoxomicin],decrease in viable cell numbers,"[1]; 0.05 μM, 48 hours after addition, two experiments",30-50%
same,detrimental effects over time,"[1]; 0.01, 0.005 and 0.001 μM",not showing any detrimental effects until 72 hours
same,viable cell number,"[1]; 0.01, 0.005 and 0.001 μM",increase in viable cell number
same,decrease in viable cell number,"[1]; 0.5 and 1 μM, 48 hours after addition, compared to control",90%
same,transient antibody titres versus DMSO control cells,GS-KO CHO host cell line; [5],higher transient titres
same,cell specific productivities compared to MSX control pools,[2]; [6],enhanced
same,cell specific productivities compared to MSX control pools,[2]; [7],enhanced
same,increase in antibody concentration over control pools generated with MSX alone,"[3]; 0.025 μM epoxomicin and 37.5 μM MSX, 192 hours of batch culture",3-7 fold
same,maximum viable cell number,"[3]; pool CLC18 constructed with 0.025 μM epoxomicin and 37.5 μM MSX, batch culture without inhibitor",5.328×10^6 cells/ml
CC1(C)C(N(O)C(=O)Nc2ccc(Cl)cc2)N(c2ccc(Cl)cc2)C(=O)N1CC(=O)N/N=C/C=C/c1ccc([N+](=O)[O-])o1 (stereo not shown) [eeyarestatin I],decrease in viable cell number,"[1]; 1 μM, 48 hours after addition, two experiments",15-30%
same,effect on the culture viability parameters,"[1]; 10 μM, two experiments",consistently showed an effect
same,concentration sufficient to block ER translocation,ER translocation,8 µM
same,cell specific productivity and titre,GS-KO CHO host cell line; 0.1 μM in culture media for selection/adaptation of host,increase in cell specific productivity and titre
same,transient antibody titres versus DMSO control cells,GS-KO CHO host cell line; host cultured with 0.1 μM Eeyarestatin I before transfection,higher transient titres
same,transient antibody titres versus DMSO control cells,GS-KO CHO host cell line; [5],higher transient titres
same,cell specific productivities compared to MSX control pools,[2]; [6],enhanced
same,cell specific productivities compared to MSX control pools,[2]; [7],enhanced
"CC(C)C[C@@H](C=O)NC(=O)[C@H](CC(C)C)NC(=O)[C@H](CC(C)C)NC(=O)OCc1ccccc1 [MG-132, Z-Leu-Leu-Leu-al] (Cbz-Leu-Leu-Leu-aldehyde)",effect on culture viability and cell numbers,[1]; 0.1 μM,less of an effect
same,reduction in the culture viability to,"[1]; 0.5 and 1 μM, 48 hours after addition",approximately 50%
same,cell numbers and culture viability,"[1]; 5 and 10 μM, 48 hours after addition",dramatically reduced
same,cytotoxicity at 48 h,"[4]; 0.5 and 1 μM, 48 hours after addition, compared to control, read-out: decrease in viable cell number",~40%
same,cytotoxicity at 0.5 μM,[4]; read-out: reduction of cell concentration and culture viability compared to control,30 to 60%
same,concentration shown to induce apoptosis,apoptosis,1.5 µM
same,host cell growth in presence of inhibitor,"GS-KO CHO host cell line; 125 nM, transfection immediately after culture with drug",not sufficient cells
same,monoclonal antibody titre higher than control pool,[2]; cells continually cultured with inhibitor,~4 fold
same,monoclonal antibody titre higher than control pool,[2]; two passages in the absence of inhibitor,~4 fold
same,final inhibitor concentrations that resulted in the emergence of cell pools,[2]; alongside 37.5 μM MSX,15.625 nM and 31.25 nM
same,cell specific productivities compared to MSX control pools,[2]; [6],enhanced
same,cell specific productivities compared to MSX control pools,[2]; [7],enhanced
same,increase in the amount of antibody in cell culture supernatant over MSX alone pools,"[3]; 0.0625 μM MG-132 and 37.5 μM MSX, 192 hours of batch culture",~4 fold
same,viable cell counts following electroporation and cell line construction,[3]; concentrations used in Example 2,poor viable cell counts
